Laboratory results taken from a compilation of properties of binary mixtures (doi:10.1016/j.molliq.2021.117163).

Assay: xn = mol fraction of the nth substance listed
Settings: 298.15 K, 100 kPa

| SMILES | viscosity (x2 = 0) [mPa·s] | viscosity (x2 = 0.05) [mPa·s] | viscosity (x2 = 0.1) [mPa·s] | viscosity (x2 = 0.3) [mPa·s] | viscosity (x2 = 0.4) [mPa·s] | viscosity (x2 = 0.5) [mPa·s] | viscosity (x2 = 0.6) [mPa·s] | viscosity (x2 = 0.7) [mPa·s] | viscosity (x2 = 0.8) [mPa·s] | viscosity (x2 = 0.9) [mPa·s] | viscosity (x1 = 1) [mPa·s] |
| --- | --- | --- | --- | --- | --- | --- | --- | --- | --- | --- | --- |
| CC1COC(=O)O1 (stereo unspecified) + CCCC[n+]1ccn(C)c1.F[B-](F)(F)F | 2.7 | 3.6 | 4.4 | 10 | 15 | 22 | 31.4 | 44.5 | 63.5 | 81.3 |  |
| CCCC[n+]1ccn(C)c1.F[B-](F)(F)F + CC1COC(=O)O1 |  |  |  |  |  |  |  |  |  |  | 107.2 |
